Measured values reported in patent US8415095B2, “Use of nucleoside derivatives comprising a citrate group for the production of antibodies having an affinity for triphosphorylated nucleosides” (Centre National de la Recherche-Scientifique-CNRS, priority 2003, dated 2013).
“And” between values parts separate entries of the source, which are not always exact repeats. Equal entries are not always repeated.

Legend:
[1] = test system: anti-isostere antibody of ddATP; test: Radioimmunological determination (RIA) of the specificity of the anti-isostere antibody of ddATP, tracer ddA-HS-K-125IY; design: species or system rabbit; details: concentration of non-tagged antigen which inhibits 50% of the antigen-antibody binding
Text: The polyclonal antibodies were produced in the rabbit, according to standard methods.
The antibodies having an affinity for the ddNTP derivatives can be identified by immunological techniques either by means of immunoenzymatic determinations or by means of radioimmunological determinations (RIA).
The specificity of these antibodies was studied in relation to different analogues of ddATP.

blood monocyte cells = test: In vitro cell model: blood monocyte cells incubated with ddI, RIA of supernatant ddI and intracellular ddATP after Sep Pak anionic cartridge; type: in vitro ADME, human; details: for Intracellular content in ddATP eq. (pmoles/10^6) cells: fractions 32-37
Protocol: Separation by anionic chromatography of the different phosphorylated metabolites stemming from the cellular metabolism of the ddI (ddIMP, ddAMP, ddADP and ddATP) was performed on Sep Pak anionic cartridge by means of a stepwise gradient using different concentrations of KCl (6 ml KCl 50 mM, 10 ml KCl 100 mM and 6 ml KCl 250 mM).
A certain number of controls were performed on an in vitro cell model. After separation by density gradient on Ficoll, the blood monocyte cells were incubated with different concentrations of ddI in the RPMI (at the level of 5×10^5 cells per ml).
The immunoreactivity present in the supernatant was expressed in equivalents (eq.) ddI established in relation to a ddI reference curve, and illustrated in Table 2 below. The ddATP immunoreactivity corresponds to the sum of the immunoreactivities present in the fractions 32-37 stemming from the separation of the intracellular contents on Sep Pak anionic cartridge. The immunoreactivity was expressed in ddATP equivalents in relation to a ddATP reference curve, and is also illustrated in Table 2 below.
The nature of the immunoreactive material present in the culture supernatant and in the intracellular medium was controlled by chromatography on a Sep Pak anionic cartridge. and detected by radioimmunological quantitation. […] This is shown in attached FIG. 2.

[2] = human, in vivo
Protocol: Blood samples were collected from patients infected with HIV-1 and undergoing treatment comprising administration of ddI. The patients were under the supervision of Professor P. Dellamonica at the Archet Hospital in Nice. The blood samples were collected using cell preparation tubes (CPT) at the rate of two 4-ml tubes for each of the 4 patients participating in this study. Quantification of the ddI in the plasma was performed for each patient and expressed in ddI equivalents. Intracellular quantification of ddATP was performed after chromatography (on Sep Pak anionic cartridge) of the cellular lysates. For each fraction (500 μl), the cellular content of ddATP was determined directly and expressed in ddATP equivalents; quantification was then performed after dephosphorylation and expressed in ddA equivalents.

| IC50 [1] | Compound | also measured |
| --- | --- | --- |
| > 1000 µM | Nc1ncnc2c1ncn2[C@@H]1O[C@H](COP(=O)(O)OP(=O)(O)O)[C@@H](O)[C@H]1O [ADP] |  |
| > 1000 µM | Nc1ncnc2c1ncn2[C@@H]1O[C@H](COP(=O)(O)O)[C@@H](O)[C@H]1O [AMP] |  |
| 36 µM | Nc1ncnc2c1ncn2[C@@H]1O[C@H](COP(=O)(O)OP(=O)(O)OP(=O)(O)O)[C@@H](O)[C@H]1O [ATP] |  |
| 2.4 µM | Nc1ncnc2c1ncn2[C@@H]1O[C@H](CO)[C@@H](O)[C@H]1O [adenosine] |  |
| 0.0011 µM | Nc1ncnc2c1ncn2[C@H]1CC[C@@H](COP(=O)(O)OP(=O)(O)OP(=O)(O)O)O1 [ddATP, 2′,3′-didesoxyadenosine-5′-triphosphate] |  |

More lines, now with the values behind:

| Compound | IC50 [1] | also measured |
| --- | --- | --- |
| Nc1ccn(C2CSC(CO)O2)c(=O)n1 (centres unmarked) [3TC, 2′,3′-dideoxyo-3′-thiacytidine] | 200 µM |  |
| Nc1ncnc2nc[nH]c12 [adenine] | 9 µM |  |
| Nc1ncnc2c1ncn2C1CC(O)C(CO)O1 (centres unmarked) [dA] | 0.3 µM |  |
| Nc1ncnc2c1ncn2[C@H]1CC[C@@H](CO)O1 [ddA, 2′,3′-dideoxyadenosine] | 0.0004 µM |  |
| Nc1ccn([C@H]2CC[C@@H](CO)O2)c(=O)n1 [ddC] | > 1000 µM |  |
| O=c1[nH]cnc2c1ncn2[C@H]1CC[C@@H](CO)O1 [ddI] | 0.002 µM | intracellular immunoreactive content eluted in the elution volume of ddATP (yield) (blood monocyte cells; Sep Pak anionic cartridge): 92%; share of supernatant immunoreactivity in fractions 1 to 5 (elution volume of ddI) (blood monocyte cells; culture supernatants n=4, Sep Pak anionic cartridge): 100%; Concentration of ddI of the supernatant in ddI eq. (blood monocyte cells; incubated ddI 1 × 10^−4 M): 130 µM and 150 µM; Concentration of ddI of the supernatant in ddI eq. (M) (blood monocyte cells; incubated ddI 1 × 10^−5 M): 3.8 ± 0.34 × 10^−5 (n = 2) M; Intracellular content in ddATP eq. (pmoles/10^6) cells (blood monocyte cells; incubated ddI 1 × 10^−5 M): 10.4 ± 0.6 (n = 2) pmoles/10^6 cells; Concentration of ddI of the supernatant in ddI eq. (M) (blood monocyte cells; incubated ddI 1 × 10^−7 M): 2.74 × 10^−7 (n = 1) M; Intracellular content in ddATP eq. (pmoles/10^6) cells (blood monocyte cells; incubated ddI 1 × 10^−7 M): 0.15 (n = 1) pmoles/10^6 cells; Concentration of ddI of the supernatant in ddI eq. (M) (blood monocyte cells; incubated ddI 5 × 10^−6 M): 5.74 × 10^−6 (n = 1) M; Intracellular content in ddATP eq. (pmoles/10^6) cells (blood monocyte cells; incubated ddI 5 × 10^−6 M): 1.8 (n = 1) pmoles/10^6 cells; ddI in the cells (blood monocyte cells; no immunoreactive material at the retention time of ddI): not detectable; plasma concentrations [2]: 2-6×10^−6 |
| Nc1ncnc2c1ncn2C1CCC(COC(=O)CC(O)(CC(=O)O)C(=O)O)O1 (centres unmarked) [isostere of ddATP, 5′-O-(3,4-dicarboxy-3-hydroxy)butanoate-2′,3′-didesoxyadenosine] | 5.2e-05 µM |  |
